Target: IRAK4 (Homo sapiens (Human), UniProt Q9NWZ3)
Test: Determination of IRAK4 kinase activity (IMAP fluorescence polarization, phosphorylation of fluorescent peptide substrate)
Type: biochemical
Settings: 0.5 nM GST tagged IRAK4, 100 nM peptide substrate RP7030, 100 μM ATP, 30 minutes at 25° C.
Method: The kinase activity of IRAK4 is determined by its ability to catalyze the phosphorylation of a fluorescent polypeptide substrate. The extent of phosphorylation is measured using IMAP technology (Molecular Devices) where the phosphorylated fluorescent substrate binds to the large M(III)-based nanoparticles which reduces the rotational speed of the substrate and thus increases its fluorescent polarization (FP).
Procedure: A 20 μl reaction mixture contains 10 mM TriHCl, pH 7.2, 0.5 nM GST tagged IRAK4 (SignalChem), 100 nM fluorescent peptide substrate (RP7030, Molecular Devices), 100 μM ATP, 1 mM DTT, 1 mM MgCl2, and 0.01% Tween 20. The reaction is initiated by the addition of ATP. After incubation for 30 minutes at 25° C., 60 μl of Progressive IMAP Reagent (Molecular Devices) is added to stop the reaction. Change in RP7030's FP is determined by a FP reader (Analyst HT, LJL BioSystems). Analytical LCMS Conditions: • Condition A: Phenomenex Luna C18 (4.6×250 mm), 95:5 to 5:95 water:MeCN (0.05% TFA), over 10 min, hold 6 min. • Condition B: Agilent SBC (3.0×50 mm), solvent A: H20-0.1% TFA; • solvent B: ACN-0.1% TFA; GRADIENT TABLE: 0 min:10% B, 0.3 min: 10% B, 1.5 min: 95% B, 2.70 min: 95% B, 2.76 min: 10% B, stop time 3.60 min.

Sequence of IRAK4 (Q9NWZ3 whole entry): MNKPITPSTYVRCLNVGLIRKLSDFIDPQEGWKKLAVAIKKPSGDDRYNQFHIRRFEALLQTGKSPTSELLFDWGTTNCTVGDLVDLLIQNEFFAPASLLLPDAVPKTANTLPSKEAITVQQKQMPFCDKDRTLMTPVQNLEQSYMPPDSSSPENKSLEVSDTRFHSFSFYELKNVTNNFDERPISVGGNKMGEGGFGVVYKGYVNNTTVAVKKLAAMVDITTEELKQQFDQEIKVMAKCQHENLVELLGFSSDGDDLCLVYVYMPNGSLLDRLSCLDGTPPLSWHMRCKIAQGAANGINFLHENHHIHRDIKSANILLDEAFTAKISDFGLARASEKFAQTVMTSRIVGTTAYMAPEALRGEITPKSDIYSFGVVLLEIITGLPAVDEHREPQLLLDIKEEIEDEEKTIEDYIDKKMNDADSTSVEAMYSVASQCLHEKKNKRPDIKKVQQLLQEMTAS

Structure (SMILES)	IC50
OC[C@H]1C[C@@H](Nc2nc(Nc3ccccc3)ncc2-c2nc3ccccc3s2)[C@H](O)[C@@H]1O [Example 1, (1R,2S,3R,5R)-3-((5-(benzo[d]thiazol-2-yl)-2-(phenylamino)pyrimidin-4-yl)amino)-5-(hydroxymethyl)cyclopentane-1,2-diol]	20 nM
OC[C@H]1C[C@@H](Nc2nc(Nc3ccc(O)cc3)ncc2-c2nc3ccccc3s2)[C@H](O)[C@@H]1O [Example 2, (1R,2S,3R,5R)-3-((5-(benzo[d]thiazol-2-yl)-2-((4-hydroxyphenyl)amino)pyrimidin-4-yl)amino)-5-(hydroxymethyl)cyclopentane-1,2-diol]	5.8 nM
OC[C@H]1C[C@@H](Nc2nc(Nc3cccc(O)c3)ncc2-c2nc3ccccc3s2)[C@H](O)[C@@H]1O [Example 3, (1R,2S,3R,5R)-3-((5-(benzo[d]thiazol-2-yl)-2-((3-hydroxyphenyl)amino)pyrimidin-4-yl)amino)-5-(hydroxymethyl)cyclopentane-1,2-diol]	12 nM
COc1cccc(Nc2ncc(-c3nc4ccccc4s3)c(N[C@@H]3C[C@H](CO)[C@@H](O)[C@H]3O)n2)c1 [Example 4, (1R,2S,3R,5R)-3-((5-(benzo[d]thiazol-2-yl)-2-((3-methoxyphenyl)amino)pyrimidin-4-yl)amino)-5-(hydroxymethyl)cyclopentane-1,2-diol]	137 nM
Nc1ncc(-c2nc3ccccc3o2)c(N[C@@H]2C[C@H](CO)[C@@H](O)[C@H]2O)n1 [Example 5, (1R,2S,3R,5R)-3-((2-amino-5-(benzo[d]oxazol-2-yl)pyrimidin-4-yl)amino)-5-(hydroxymethyl)cyclopentane-1,2-diol]	2560 nM
OC[C@H]1C[C@@H](Nc2nc(Nc3ccnc(F)c3)ncc2-c2nc3ccccc3s2)[C@H](O)[C@@H]1O [Example 6, (1R,2S,3R,5R)-3-((5-(benzo[d]thiazol-2-yl)-2-((2-fluoropyridin-4-yl)amino)pyrimidin-4-yl)amino)-5-(hydroxymethyl)cyclopentane-1,2-diol]	2560 nM
COc1cc(Nc2ncc(-c3nc4ccccc4s3)c(N[C@@H]3C[C@H](CO)[C@@H](O)[C@H]3O)n2)ccn1 [Example 7, (1R,2S,3R,5R)-3-((5-(benzo[d]thiazol-2-yl)-2-((2-methoxypyridin-4-yl)amino)pyrimidin-4-yl)amino)-5-(hydroxymethyl)cyclopentane-1,2-diol]	4.6 nM
Cc1cnccc1Nc1ncc(-c2nc3ccccc3s2)c(N[C@@H]2C[C@H](CO)[C@@H](O)[C@H]2O)n1 [Example 8, (1R,2S,3R,5R)-3-((5-(benzo[d]thiazol-2-yl)-2-((3-methylpyridin-4-yl)amino)pyrimidin-4-yl)amino)-5-(hydroxymethyl)cyclopentane-1,2-diol]	516 nM
Cc1cc(Nc2ncc(-c3nc4ccccc4s3)c(N[C@@H]3C[C@H](CO)[C@@H](O)[C@H]3O)n2)cc(C)n1 [Example 9, (1R,2S,3R,5R)-3-((5-(benzo[d]thiazol-2-yl)-2-((2,6-dimethylpyridin-4-yl)amino)pyrimidin-4-yl)amino)-5-(hydroxymethyl)cyclopentane-1,2-diol]	0.32 nM
COc1ccc(Nc2ncc(-c3nc4ccccc4s3)c(N[C@@H]3C[C@H](CO)[C@@H](O)[C@H]3O)n2)cc1 [Example 10, (1R,2S,3R,5R)-3-((5-(benzo[d]thiazol-2-yl)-2-((4-methoxyphenyl)amino)pyrimidin-4-yl)amino)-5-(hydroxymethyl)cyclopentane-1,2-diol]	14 nM
Nc1ncc(-c2nc(-c3ccccc3)cs2)c(N[C@@H]2C[C@H](CO)[C@@H](O)[C@H]2O)n1 [Example 11, (1R,2S,3R,5R)-3-((2-amino-5-(4-phenylthiazol-2-yl)pyrimidin-4-yl)amino)-5-(hydroxymethyl)cyclopentane-1,2-diol]	409 nM
OC[C@H]1C[C@@H](Nc2nc(NC3COC3)ncc2-c2nc3ccccc3s2)[C@H](O)[C@@H]1O [Example 12, (1R,2S,3R,5R)-3-((5-(benzo[d]thiazol-2-yl)-2-(oxetan-3-ylamino)pyrimidin-4-yl)amino)-5-(hydroxymethyl)cyclopentane-1,2-diol]	236 nM
OC[C@H]1C[C@@H](Nc2nc(Nc3cccc(F)c3)ncc2-c2nc3ccccc3s2)[C@H](O)[C@@H]1O [Example 13, (1R,2S,3R,5R)-3-((5-(benzo[d]thiazol-2-yl)-2-((3-fluorophenyl)amino)pyrimidin-4-yl)amino)-5-(hydroxymethyl)cyclopentane-1,2-diol]	62 nM
NC(=O)Cc1cccc(Nc2ncc(-c3nc4ccccc4s3)c(N[C@@H]3C[C@H](CO)[C@@H](O)[C@H]3O)n2)c1 [Example 14, 2-(3-((5-(benzo[d]thiazol-2-yl)-4-(((1R,2S,3R,4R)-2,3-dihydroxy-4-(hydroxymethyl)cyclopentyl)amino)pyrimidin-2-yl)amino)phenyl)acetamide]	5.4 nM

Results, then the compound that gave them:

IC50	Structure (SMILES)
3 nM	Cc1cc(Nc2cc(N[C@H]3C[C@@H](C(C)(C)O)[C@H](O)[C@@H]3O)c(-c3ccc4ccccc4n3)cn2)cc(C)n1 (stereo in doubt) [Example 164, (1S,2R,3 S,5R)-3-((2-((2,6-dimethylpyridin-4-yl)amino)-5-(quinolin-2-yl)pyridin-4-yl)amino)-5-(2-hydroxypropan-2-yl)cyclopentane-1,2-diol]
333 nM	OC[C@H]1C[C@@H](Nc2nc(NCC3CC3)ncc2-c2nc3ccccc3s2)[C@H](O)[C@@H]1O [Example 15, (1R,2S,3R,5R)-3-((5-(benzo[d]thiazol-2-yl)-2-((cyclopropylmethyl)amino)pyrimidin-4-yl)amino)-5-(hydroxymethyl)cyclopentane-1,2-diol]
228 nM	COCCCNc1ncc(-c2nc3ccccc3s2)c(N[C@@H]2C[C@H](CO)[C@@H](O)[C@H]2O)n1 [Example 16, (1R,2S,3R,5R)-3-((5-(benzo[d]thiazol-2-yl)-2-((3-methoxypropyl)amino)pyrimidin-4-yl)amino)-5-(hydroxymethyl)cyclopentane-1,2-diol]
1080 nM	OC[C@H]1C[C@@H](Nc2nc(NC3CCOCC3)ncc2-c2nc3ccccc3s2)[C@H](O)[C@@H]1O [Example 17, (1R,2S,3R,5R)-3-((5-(benzo[d]thiazol-2-yl)-2-((tetrahydro-2H-pyran-4-yl)amino)pyrimidin-4-yl)amino)-5-(hydroxymethyl)cyclopentane-1,2-diol]
3010 nM	OC[C@H]1C[C@@H](Nc2nc(NC3CCCCC3)ncc2-c2nc3ccccc3s2)[C@H](O)[C@@H]1O [Example 18, (1R,2S,3R,5R)-3-((5-(benzo[d]thiazol-2-yl)-2-(cyclohexylamino)pyrimidin-4-yl)amino)-5-(hydroxymethyl)cyclopentane-1,2-diol]
104 nM	Nc1ncc(-c2ccc3ccccc3n2)c(N[C@@H]2C[C@H](CO)[C@@H](O)[C@H]2O)n1 [Example 19, (1R,2S,3R,5R)-3-((2-amino-5-(quinolin-2-yl)pyrimidin-4-yl)amino)-5-(hydroxymethyl)cyclopentane-1,2-diol]
24 nM	Nc1ncc(-c2nc3cnccc3s2)c(N[C@@H]2C[C@H](CO)[C@@H](O)[C@H]2O)n1 [Example 20, (1R,2S,3R,5R)-3-((2-amino-5-(thiazolo[4,5-c]pyridin-2-yl)pyrimidin-4-yl)amino)-5-(hydroxymethyl)cyclopentane-1,2-diol]
16 nM	Nc1ncc(-c2nc3ccncc3s2)c(N[C@@H]2C[C@H](CO)[C@@H](O)[C@H]2O)n1 [Example 21, (1R,2S,3R,5R)-3-((2-amino-5-(thiazolo[5,4-c]pyridin-2-yl)pyrimidin-4-yl)amino)-5-(hydroxymethyl)cyclopentane-1,2-diol]
1240 nM	OC[C@H]1C[C@@H](Nc2nc(Nc3ccccc3O)ncc2-c2nc3ccccc3s2)[C@H](O)[C@@H]1O [Example 22, (1R,2S,3R,5R)-3-((5-(benzo[d]thiazol-2-yl)-2-((2-hydroxyphenyl)amino)pyrimidin-4-yl)amino)-5-(hydroxymethyl)cyclopentane-1,2-diol]
20 nM	OC[C@H]1C[C@@H](Nc2nc(Nc3ccc4[nH]ccc4c3)ncc2-c2nc3ccccc3s2)[C@H](O)[C@@H]1O [Example 23, (1R,2S,3R,5R)-3-((2-((1H-indol-5-yl)amino)-5-(benzo[d]thiazol-2-yl)pyrimidin-4-yl)amino)-5-(hydroxymethyl)cyclopentane-1,2-diol]
22 nM	OC[C@H]1C[C@@H](Nc2nc(Nc3ccc4cc[nH]c4c3)ncc2-c2nc3ccccc3s2)[C@H](O)[C@@H]1O [Example 24, (1R,2S,3R,5R)-3-((2-((1H-indol-6-yl)amino)-5-(benzo[d]thiazol-2-yl)pyrimidin-4-yl)amino)-5-(hydroxymethyl)cyclopentane-1,2-diol]
34 nM	OC[C@H]1C[C@@H](Nc2nc(Nc3ccncn3)ncc2-c2nc3ccccc3s2)[C@H](O)[C@@H]1O [Example 25, (1R,2S,3R,5R)-3-((5-(benzo[d]thiazol-2-yl)-2-(pyrimidin-4-ylamino)pyrimidin-4-yl)amino)-5-(hydroxymethyl)cyclopentane-1,2-diol]
